Test system: HBV (encapsidated HBV DNA, HepG2.2.15 cells)
Experiment: HBV replication inhibition assay, BDNA assay in HepG2.2.15 cells
Type: cell-based
How it was run: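 Encapsidated HBV DNA in DNase-treated, proteinase K-lysed supernatant was measured by branched DNA after 6 days' compound exposure, refreshed on day 3, of HepG2.2.15 cells in 0.5% DMSO. Signals normalized to DMSO-treated wells; EC50 from nonlinear regression of inhibition against log concentration.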

[1] = Hepatitis B virus, HepG2.2.15, Activity in BDNA-assay

Row | SMILES | EC50 (Activity in BDNA-assay) [µM] | EC50 [1] [µM]
1 | C[C@@H]1Cc2nn3c(c2CN1C(=O)Nc1ccc(F)c(Cl)c1F)C(=O)N(C)CC(CO)C3 (single isomer, unassigned) [Compound 089_D2, (3R,8R*)—N-(3-chloro-2,4-difluorophenyl)-8-(hydroxymethyl)-3,10-dimethyl-11-oxo-1,3,4,7,8,9,10,11-octahydro-2H-pyrido[4′,3′:3,4]pyrazolo[1,5-a][1,4]diazepine-2-carboxamide] | 0.001 to 0.1 | –
2 | Cn1c(CO)cn2nc3c(c2c1=O)CN(C(=O)Nc1ccc(F)c(Cl)c1)CC3 [Compound 041, N-(3-chloro-4-fluorophenyl)-8-(hydroxymethyl)-9-methyl-10-oxo-3,4,9,10-tetrahydropyrido[4′,3′:3,4]pyrazolo[1,5-a]pyrazine-2 (1H)-carboxamide] | – | 0.001 to 0.1
3 | CC(=O)NCC1CN(C)C(=O)c2c3c(nn2C1)CCN(C(=O)Nc1ccc(F)c(Cl)c1)C3 (stereo not drawn) [Compound 117, 8-(acetamidomethyl)-N-(3-chloro-4-fluorophenyl)-10-methyl-11-oxo-1,3,4,7,8,9,10,11-octahydro-2H-pyrido[4′,3′:3,4]pyrazolo[1,5-a][1,4]diazepine-2-carboxamide] | – | 0.001 to 0.1
4 | C[C@@H]1Cc2nn3c(c2CN1C(=O)Nc1ccc(F)c(Cl)c1)C(=O)N(C)CC(C)(F)C3 (single isomer, unassigned) [Compound 079_D1, (3R,8R*)—N-(3-chloro-4-fluorophenyl)-8-fluoro-3,8,10-trimethyl-11-oxo-1,3,4,7,8,9,10,11-octahydro-2H-pyrido[4′,3′:3,4]pyrazolo[1,5-a][1,4]diazepine-2-carboxamide] | – | 0.001 to 0.1
5 | C=CC(O)C1CN(C)C(=O)c2c3c(nn2C1)CC(C)N(C(=O)Nc1ccc(F)c(C(F)(F)F)c1)C3 [Compound 122_D1, (3R,8S*)—N-(4-fluoro-3-(trifluoromethyl)phenyl)-8-((R*)-1-hydroxyallyl)-3,10-dimethyl-11-oxo-1,3,4,7,8,9,10,11-octahydro-2H-pyrido[4′,3′:3,4]pyrazolo[1,5-a][1,4]diazepine-2-carboxamide] | 0.001 to 0.1 | –
6 | C[C@@H]1Cc2nn3c(c2CN1C(=O)Nc1ccc(F)c(Cl)c1)C(=O)N(CCO)CCC3 [Compound 049, (3R)— N-(3-chloro-4-fluorophenyl)-10-(2-hydroxyethyl)-3-methyl-11-oxo-1,3,4,7,8,9,10,11-octahydro-2H-pyrido[4′,3′:3,4]pyrazolo[1,5-a][1,4]diazepine-2-carboxamide] | – | 0.001 to 0.1
7 | CN(C)C(=O)C1CCn2nc3c(c2C(=O)N1C)CN(C(=O)Nc1ccc(F)c(Cl)c1)CC3 (stereo not drawn) [Compound 059, N2-(3-chloro-4-fluorophenyl)-N9,N9,10-trimethyl-11-oxo-1,3,4,7,8,9,10,11-octahydro-2H-pyrido[4′,3′:3,4]pyrazolo[1,5-a][1,4]diazepine-2,9-dicarboxamide] | – | 0.1 to 0.5
8 | CN1CC(CNCC(F)F)Cn2nc3c(c2C1=O)CN(C(=O)Nc1ccc(F)c(Cl)c1F)CC3 (single isomer, unassigned) [Compound 128_E2, (S*)—N-(3-chloro-2,4-difluorophenyl)-8-(((2,2-difluoroethyl)amino)methyl)-10-methyl-11-oxo-1,3,4,7,8,9,10,11-octahydro-2H-pyrido[4′,3′:3,4]pyrazolo[1,5-a][1,4]diazepine-2-carboxamide] | 0.001 to 0.1 | –
9 | CN1CC2(CC(O)C2)Cn2nc3c(c2C1=O)CN(C(=O)Nc1ccc(F)c(Cl)c1)CC3 (stereo not drawn) [Compound 132, N-(3-chloro-4-fluorophenyl)-3-hydroxy-10′-methyl-11′-oxo-1′,3′,4′,9′,10′,11′-hexahydro-2′H,7′H-spiro[cyclobutane-1,8′-pyrido[4′,3′:3,4]pyrazolo [1,5-a][1,4]diazepine]-2′-carboxamide] | – | 0.001 to 0.1
10 | C[C@@H]1Cc2nn3c(c2CN1C(=O)Nc1cc(Cl)c(F)cc1F)C(=O)N(C)CC(CO)C3 (single isomer, unassigned) [Compound 090_D2, (3R,8R*)—N-(5-chloro-2,4-difluorophenyl)-8-(hydroxymethyl)-3,10-dimethyl-11-oxo-1,3,4,7,8,9,10,11-octahydro-2H-pyrido[4′,3′:3,4]pyrazolo[1,5-a][1,4]diazepine-2-carboxamide] | 0.001 to 0.1 | –
11 | CCC(O)C1CN(C)C(=O)c2c3c(nn2C1)CCN(C(=O)Nc1cc(Cl)c(F)cc1F)C3 (single isomer, unassigned) [Compound 096_E3, (S*)—N-(5-chloro-2,4-difluorophenyl)-8-((S*)-1-hydroxypropyl)-10-methyl-11-oxo-1,3,4,7,8,9,10,11-octahydro-2H-pyrido[4′,3′:3,4]pyrazolo[1,5-a][1,4]diazepine-2-carboxamide] | 0.1 to 0.5 | –
12 | CN1CC(F)Cn2nc3c(c2C1=O)CN(C(=O)Nc1cc(Br)c(F)cc1F)CC3 (stereo not drawn) [Compound 013, N-(5-bromo-2,4-difluorophenyl)-8-fluoro-10-methyl-11-oxo-1,3,4,7,8,9,10,11-octahydro-2H-pyrido[4′,3′:3,4]pyrazolo[1,5-a][1,4]diazepine-2-carboxamide] | – | 0.001 to 0.1
13 | C[C@@H]1Cc2nn3c(c2CN1C(=O)Nc1cc(Cl)c(F)cc1F)C(=O)N(C)CC(CO)C3 (single isomer, unassigned) [Compound 090_D1, (3R,8S*)—N-(5-chloro-2,4-difluorophenyl)-8-(hydroxymethyl)-3,10-dimethyl-11-oxo-1,3,4,7,8,9,10,11-octahydro-2H-pyrido[4′,3′:3,4]pyrazolo[1,5-a][1,4]diazepine-2-carboxamide] | – | 0.001 to 0.1
14 | CN1CC(CNCC(F)F)Cn2nc3c(c2C1=O)CN(C(=O)Nc1ccc(F)c(C(F)(F)F)c1F)CC3 (single isomer, unassigned) [Compound 131_E2, (S*)—N-(2,4-difluoro-3-(trifluoromethyl)phenyl)-8-(((2,2-difluoroethyl)amino)methyl)-10-methyl-11-oxo-1,3,4,7,8,9,10,11-octahydro-2H-pyrido[4′,3′:3,4]pyrazolo[1,5-a][1,4]diazepine-2-carboxamide] | 0.1 to 0.5 | –
15 | CSC1CN(C)C(=O)c2c3c(nn2C1)CCN(C(=O)Nc1ccc(F)c(Cl)c1)C3 (stereo not drawn) [Compound 025, N-(3-chloro-4-fluorophenyl)-10-methyl-8-(methylthio)-11-oxo-1,3,4,7,8,9,10,11-octahydro-2H-pyrido[4′,3′:3,4]pyrazolo[1,5-a][1,4]diazepine-2-carboxamide] | – | 0.001 to 0.1
16 | CN1CC(CNCC(F)F)Cn2nc3c(c2C1=O)CN(C(=O)Nc1ccc(F)c(C(F)(F)F)c1)CC3 (single isomer, unassigned) [Compound 119_E2, (S*)-8-(((2,2-difluoroethyl)amino)methyl)-N-(4-fluoro-3-(trifluoromethyl)phenyl)-10-methyl-11-oxo-1,3,4,7,8,9,10,11-octahydro-2H-pyrido[4′,3′:3,4]pyrazolo[1,5-a][1,4]diazepine-2-carboxamide] | 0.001 to 0.1 | –
17 | CN1CC(CN)Cn2nc3c(c2C1=O)CN(C(=O)Nc1ccc(F)c(C(F)(F)F)c1)CC3 (stereo not drawn) [Compound 093, 8-(aminomethyl)-N-[4-fluoro-3-(trifluoromethyl)phenyl]-10-methyl-11-oxo-1,3,4,7,8,9-hexahydropyrido[2,3]pyrazolo[2,4-b][1,4]diazepine-2-carboxamide] | – | 0.1 to 0.5
18 | C[C@@H]1Cc2nn3c(c2CN1C(=O)Nc1ccc(F)c(C(F)(F)F)c1)C(=O)N(C)CC(F)C3 (single isomer, unassigned) [Compound 138, (3R,8R*)-8-fluoro-N-(4-fluoro-3-(trifluoromethyl)phenyl)-3,10-dimethyl-11-oxo-1,3,4,7,8,9,10,11-octahydro-2H-pyrido[4′,3′:3,4]pyrazolo[1,5-a][1,4]diazepine-2-carboxamide] | – | 0.001 to 0.1
19 | CN1CC(CN2CCC(F)(F)C2)Cn2nc3c(c2C1=O)CN(C(=O)Nc1ccc(F)c(Cl)c1)CC3 (stereo not drawn) [Compound 066, N-(3-chloro-4-fluorophenyl)-8-((3,3-difluoropyrrolidin-1-yl)methyl)-10-methyl-11-oxo-1,3,4,7,8,9,10,11-octahydro-2H-pyrido[4′,3′:3,4]pyrazolo[1,5-a][1,4]diazepine-2-carboxamide] | – | 0.001 to 0.1
20 | O=C(Nc1ccc(F)c(Cl)c1)N1CCc2nn3c(c2C1)C(=O)N(CC(F)F)CCC3 [Compound 038, N-(3-chloro-4-fluorophenyl)-10-(2,2-difluoroethyl)-11-oxo-1,3,4,7,8,9,10,11-octahydro-2H-pyrido[4′,3′:3,4]pyrazolo[1,5-a][1,4]diazepine-2-carboxamide] | – | 0.001 to 0.1
21 | CCC(O)C1CN(C)C(=O)c2c3c(nn2C1)CC(C)N(C(=O)Nc1ccc(F)c(C(F)(F)F)c1)C3 [Compound 107_D1, (3R,8S*)—N-(4-fluoro-3-(trifluoromethyl)phenyl)-8-((R)-1-hydroxypropyl)-3,10-dimethyl-11-oxo-1,3,4,7,8,9,10,11-octahydro-2H-pyrido[4′,3′:3,4]pyrazolo[1,5-a][1,4] diazepine-2-carboxamide] | – | 0.001 to 0.1
22 | CCCC(O)C1CN(C)C(=O)c2c3c(nn2C1)CCN(C(=O)Nc1ccc(F)c(Cl)c1)C3 (stereo not drawn) [Compound 106, N-(3-chloro-4-fluoro-phenyl)-8-(1-hydroxybutyl)-10-methyl-1-oxo-1,3,4,7,8,9-hexahydropyrido[2,3]pyrazolo[2,4-b][1,4]diazepine-2-carboxamide] | – | 0.001 to 0.1
23 | CN(C)CC1CN(C)C(=O)c2c3c(nn2C1)CCN(C(=O)Nc1ccc(F)c(Cl)c1)C3 (stereo not drawn) [Compound 065] | – | 0.1 to 0.5
24 | CN1CC(CNCC(F)F)Cn2nc3c(c2C1=O)CN(C(=O)Nc1cc(Br)c(F)cc1F)CC3 (single isomer, unassigned) [Compound 125_E1, (R*)—N-(5-bromo-2,4-difluorophenyl)-8-(((2,2-difluoroethyl)amino)methyl)-10-methyl-11-oxo-1,3,4,7,8,9,10,11-octahydro-2H-pyrido[4′,3′:3,4]pyrazolo[1,5-a][1,4]diazepine-2-carboxamide] | 0.1 to 0.5 | –
